According to the NIST ThermoML archive (doi:10.1016/j.jct.2016.09.041):
Several values for one entry are separate records, joined by “and”; a condition that tells them apart may be missing. Equal entries are not always repeated. ± gives the expanded uncertainty stated by the source.

Test: molar heat capacity at constant pressure
Conditions: 101.33 kPa, Small (less than 1 g) adiabatic calorimetry

N[C@@H](Cc1c[nH]c2ccccc12)C(=O)O [L-tryptophan]
molar heat capacity at constant pressure (65.73 K, Crystal): 65.32 ± 0.61 J/K/mol
molar heat capacity at constant pressure (66.54 K, Crystal): 65.98 ± 0.61 J/K/mol
molar heat capacity at constant pressure (67.34 K, Crystal): 66.53 ± 0.62 J/K/mol
molar heat capacity at constant pressure (68.15 K, Crystal): 67.1 ± 0.62 J/K/mol
molar heat capacity at constant pressure (68.95 K, Crystal): 67.91 ± 0.62 J/K/mol
molar heat capacity at constant pressure (69.75 K, Crystal): 68.59 ± 0.63 J/K/mol
molar heat capacity at constant pressure (70 K, Crystal): 68.68 ± 0.58 J/K/mol
molar heat capacity at constant pressure (70.56 K, Crystal): 69.1 ± 0.64 J/K/mol
molar heat capacity at constant pressure (71.35 K, Crystal): 69.78 ± 0.64 J/K/mol
molar heat capacity at constant pressure (72.16 K, Crystal): 70.26 ± 0.65 J/K/mol
molar heat capacity at constant pressure (72.96 K, Crystal): 70.81 ± 0.65 J/K/mol
molar heat capacity at constant pressure (73.76 K, Crystal): 71.51 ± 0.66 J/K/mol
molar heat capacity at constant pressure (74.56 K, Crystal): 72.19 ± 0.66 J/K/mol and 72.19 ± 0.67 J/K/mol
molar heat capacity at constant pressure (75.36 K, Crystal): 72.76 ± 0.67 J/K/mol
molar heat capacity at constant pressure (76.16 K, Crystal): 73.55 ± 0.68 J/K/mol and 73.54 ± 0.67 J/K/mol
molar heat capacity at constant pressure (76.96 K, Crystal): 74.19 ± 0.68 J/K/mol
molar heat capacity at constant pressure (77.76 K, Crystal): 74.88 ± 0.86 J/K/mol and 74.88 ± 0.69 J/K/mol
molar heat capacity at constant pressure (77.81 K, Crystal): 74.18 ± 0.68 J/K/mol
molar heat capacity at constant pressure (77.91 K, Crystal): 74.86 ± 0.69 J/K/mol
molar heat capacity at constant pressure (77.92 K, Crystal): 74.32 ± 0.69 J/K/mol
molar heat capacity at constant pressure (78.27 K, Crystal): 74.94 ± 0.69 J/K/mol
molar heat capacity at constant pressure (78.42 K, Crystal): 75.32 ± 0.69 J/K/mol
molar heat capacity at constant pressure (78.45 K, Crystal): 75.01 ± 0.69 J/K/mol
molar heat capacity at constant pressure (78.56 K, Crystal): 75.5 ± 0.69 J/K/mol
molar heat capacity at constant pressure (78.82 K, Crystal): 75.44 ± 0.71 J/K/mol
molar heat capacity at constant pressure (78.84 K, Crystal): 74.99 ± 0.69 J/K/mol
molar heat capacity at constant pressure (78.87 K, Crystal): 75.62 ± 0.71 J/K/mol
molar heat capacity at constant pressure (79.2 K, Crystal 1): 71.01 ± 0.5 J/K/mol
molar heat capacity at constant pressure (79.2 K, Crystal): 75.99 ± 0.75 J/K/mol
molar heat capacity at constant pressure (79.22 K, Crystal): 75.33 ± 0.69 J/K/mol
molar heat capacity at constant pressure (79.24 K, Crystal): 75.75 ± 0.7 J/K/mol
molar heat capacity at constant pressure (79.33 K, Crystal): 76.02 ± 0.71 J/K/mol
molar heat capacity at constant pressure (79.36 K, Crystal): 76.16 ± 0.71 J/K/mol
molar heat capacity at constant pressure (79.37 K, Crystal): 76.15 ± 0.7 J/K/mol
molar heat capacity at constant pressure (79.62 K, Crystal 1): 70.64 ± 0.65 J/K/mol
molar heat capacity at constant pressure (79.64 K, Crystal 1): 70.29 ± 0.66 J/K/mol
molar heat capacity at constant pressure (79.68 K, Crystal 1): 70.63 ± 0.65 J/K/mol
molar heat capacity at constant pressure (80 K, Crystal 1): 71.09 ± 0.5 J/K/mol
molar heat capacity at constant pressure (80.02 K, Crystal 1): 71.26 ± 0.43 J/K/mol
molar heat capacity at constant pressure (80.04 K, Crystal 1): 70.54 ± 0.43 J/K/mol
molar heat capacity at constant pressure (80.14 K, Crystal 1): 70.97 ± 0.48 J/K/mol
molar heat capacity at constant pressure (80.17 K, Crystal 1): 71.35 ± 0.43 J/K/mol and 71.35 ± 0.57 J/K/mol
molar heat capacity at constant pressure (80.19 K, Crystal 1): 71.22 ± 0.43 J/K/mol
molar heat capacity at constant pressure (80.41 K, Crystal 1): 71.6 ± 0.43 J/K/mol
molar heat capacity at constant pressure (80.43 K, Crystal 1): 70.98 ± 0.5 J/K/mol
molar heat capacity at constant pressure (80.48 K, Crystal 1): 71.27 ± 0.5 J/K/mol
molar heat capacity at constant pressure (80.81 K, Crystal 1): 72.02 ± 0.44 J/K/mol
molar heat capacity at constant pressure (80.83 K, Crystal 1): 71.17 ± 0.43 J/K/mol
molar heat capacity at constant pressure (80.94 K, Crystal 1): 71.85 ± 0.49 J/K/mol
molar heat capacity at constant pressure (80.98 K, Crystal 1): 72.02 ± 0.43 J/K/mol and 72.02 ± 0.47 J/K/mol
molar heat capacity at constant pressure (80.99 K, Crystal 1): 72 ± 0.43 J/K/mol
molar heat capacity at constant pressure (81.21 K, Crystal 1): 72.51 ± 0.44 J/K/mol
molar heat capacity at constant pressure (81.23 K, Crystal 1): 71.92 ± 0.45 J/K/mol
molar heat capacity at constant pressure (81.28 K, Crystal 1): 72.06 ± 0.45 J/K/mol
molar heat capacity at constant pressure (81.61 K, Crystal 1): 72.57 ± 0.44 J/K/mol
molar heat capacity at constant pressure (81.63 K, Crystal 1): 72.55 ± 0.44 J/K/mol
molar heat capacity at constant pressure (81.74 K, Crystal 1): 72.46 ± 0.44 J/K/mol
molar heat capacity at constant pressure (81.79 K, Crystal 1): 72.78 ± 0.44 J/K/mol and 72.65 ± 0.44 J/K/mol and 72.78 ± 0.53 J/K/mol
molar heat capacity at constant pressure (82 K, Crystal 1): 72.93 ± 0.44 J/K/mol
molar heat capacity at constant pressure (82.02 K, Crystal 1): 72.8 ± 0.45 J/K/mol
molar heat capacity at constant pressure (82.08 K, Crystal 1): 72.96 ± 0.45 J/K/mol
molar heat capacity at constant pressure (82.42 K, Crystal 1): 73.44 ± 0.44 J/K/mol
molar heat capacity at constant pressure (82.55 K, Crystal 1): 73.18 ± 0.44 J/K/mol
molar heat capacity at constant pressure (82.59 K, Crystal 1): 73.58 ± 0.44 J/K/mol and 73.47 ± 0.44 J/K/mol and 73.58 ± 0.58 J/K/mol
molar heat capacity at constant pressure (82.82 K, Crystal 1): 73.8 ± 0.44 J/K/mol
molar heat capacity at constant pressure (82.88 K, Crystal 1): 73.57 ± 0.47 J/K/mol
molar heat capacity at constant pressure (83.22 K, Crystal 1): 74.06 ± 0.45 J/K/mol
molar heat capacity at constant pressure (83.35 K, Crystal 1): 74 ± 0.45 J/K/mol
molar heat capacity at constant pressure (83.4 K, Crystal 1): 74.08 ± 0.45 J/K/mol
molar heat capacity at constant pressure (83.68 K, Crystal 1): 74.24 ± 0.45 J/K/mol
molar heat capacity at constant pressure (84.15 K, Crystal 1): 74.8 ± 0.45 J/K/mol
molar heat capacity at constant pressure (84.2 K, Crystal 1): 74.77 ± 0.45 J/K/mol
molar heat capacity at constant pressure (84.49 K, Crystal 1): 74.98 ± 0.45 J/K/mol
molar heat capacity at constant pressure (84.95 K, Crystal 1): 75.46 ± 0.45 J/K/mol
molar heat capacity at constant pressure (85 K, Crystal 1): 75.41 ± 0.46 J/K/mol
molar heat capacity at constant pressure (85.29 K, Crystal 1): 75.62 ± 0.45 J/K/mol
molar heat capacity at constant pressure (85.8 K, Crystal 1): 76.16 ± 0.46 J/K/mol
molar heat capacity at constant pressure (86.6 K, Crystal 1): 77.02 ± 0.47 J/K/mol
molar heat capacity at constant pressure (87.4 K, Crystal 1): 77.55 ± 0.47 J/K/mol
molar heat capacity at constant pressure (88.21 K, Crystal 1): 78.21 ± 0.47 J/K/mol
molar heat capacity at constant pressure (89.01 K, Crystal 1): 78.75 ± 0.47 J/K/mol
molar heat capacity at constant pressure (89.81 K, Crystal 1): 79.34 ± 0.47 J/K/mol
molar heat capacity at constant pressure (90 K, Crystal 1): 79.57 ± 0.5 J/K/mol
molar heat capacity at constant pressure (90.61 K, Crystal 1): 80.12 ± 0.49 J/K/mol
molar heat capacity at constant pressure (91.41 K, Crystal 1): 80.65 ± 0.49 J/K/mol
molar heat capacity at constant pressure (92.22 K, Crystal 1): 81.07 ± 0.49 J/K/mol
molar heat capacity at constant pressure (93.02 K, Crystal 1): 81.81 ± 0.5 J/K/mol
molar heat capacity at constant pressure (93.82 K, Crystal 1): 82.48 ± 0.5 J/K/mol
molar heat capacity at constant pressure (94.62 K, Crystal 1): 83.08 ± 0.5 J/K/mol
molar heat capacity at constant pressure (95.43 K, Crystal 1): 83.56 ± 0.5 J/K/mol
molar heat capacity at constant pressure (96.23 K, Crystal 1): 84.06 ± 0.5 J/K/mol
molar heat capacity at constant pressure (97.03 K, Crystal 1): 84.89 ± 0.5 J/K/mol
molar heat capacity at constant pressure (97.83 K, Crystal 1): 85.56 ± 0.5 J/K/mol
molar heat capacity at constant pressure (98.64 K, Crystal 1): 86.05 ± 0.5 J/K/mol
molar heat capacity at constant pressure (99.44 K, Crystal 1): 86.39 ± 0.5 J/K/mol
molar heat capacity at constant pressure (100 K, Crystal 1): 86.89 ± 0.5 J/K/mol
molar heat capacity at constant pressure (100.24 K, Crystal 1): 86.97 ± 0.5 J/K/mol
molar heat capacity at constant pressure (101.04 K, Crystal 1): 87.55 ± 0.5 J/K/mol
molar heat capacity at constant pressure (101.84 K, Crystal 1): 88.13 ± 0.5 J/K/mol
molar heat capacity at constant pressure (102.65 K, Crystal 1): 88.72 ± 0.5 J/K/mol
molar heat capacity at constant pressure (103.45 K, Crystal 1): 89.38 ± 0.5 J/K/mol
molar heat capacity at constant pressure (104.25 K, Crystal 1): 89.71 ± 0.5 J/K/mol
molar heat capacity at constant pressure (105.05 K, Crystal 1): 90.38 ± 0.5 J/K/mol
molar heat capacity at constant pressure (105.85 K, Crystal 1): 91.04 ± 0.58 J/K/mol
molar heat capacity at constant pressure (106.65 K, Crystal 1): 91.46 ± 0.58 J/K/mol
molar heat capacity at constant pressure (107.45 K, Crystal 1): 91.87 ± 0.58 J/K/mol
molar heat capacity at constant pressure (108.25 K, Crystal 1): 92.54 ± 0.58 J/K/mol
molar heat capacity at constant pressure (109.05 K, Crystal 1): 93.12 ± 0.58 J/K/mol
molar heat capacity at constant pressure (109.85 K, Crystal 1): 93.62 ± 0.58 J/K/mol
molar heat capacity at constant pressure (110 K, Crystal 1): 93.7 ± 0.5 J/K/mol
molar heat capacity at constant pressure (110.66 K, Crystal 1): 94.2 ± 0.58 J/K/mol
molar heat capacity at constant pressure (111.46 K, Crystal 1): 94.78 ± 0.58 J/K/mol
molar heat capacity at constant pressure (112.26 K, Crystal 1): 95.2 ± 0.58 J/K/mol
molar heat capacity at constant pressure (113.06 K, Crystal 1): 95.87 ± 0.58 J/K/mol
molar heat capacity at constant pressure (113.86 K, Crystal 1): 96.36 ± 0.58 J/K/mol
molar heat capacity at constant pressure (114.66 K, Crystal 1): 96.61 ± 0.58 J/K/mol
molar heat capacity at constant pressure (115.47 K, Crystal 1): 97.36 ± 0.58 J/K/mol
molar heat capacity at constant pressure (116.27 K, Crystal 1): 97.7 ± 0.58 J/K/mol
molar heat capacity at constant pressure (117.07 K, Crystal 1): 98.61 ± 0.58 J/K/mol
molar heat capacity at constant pressure (117.87 K, Crystal 1): 99.11 ± 0.58 J/K/mol
molar heat capacity at constant pressure (118.67 K, Crystal 1): 99.69 ± 0.58 J/K/mol
molar heat capacity at constant pressure (119.47 K, Crystal 1): 100.27 ± 0.58 J/K/mol
molar heat capacity at constant pressure (120 K, Crystal 1): 100.44 ± 0.58 J/K/mol
molar heat capacity at constant pressure (120.28 K, Crystal 1): 100.85 ± 0.58 J/K/mol
molar heat capacity at constant pressure (121.08 K, Crystal 1): 101.19 ± 0.58 J/K/mol
molar heat capacity at constant pressure (121.88 K, Crystal 1): 101.85 ± 0.58 J/K/mol
molar heat capacity at constant pressure (122.68 K, Crystal 1): 102.27 ± 0.58 J/K/mol
molar heat capacity at constant pressure (123.49 K, Crystal 1): 102.77 ± 0.58 J/K/mol
